According to patent publication US5712151A, “Antifungal agent” (Merck & Co., Inc., priority 1996, dated 1998):
≈ marks a conversion by molar mass, not a printed value.

What was measured:
Assay type in all cases: cell-based
[1] = tested on: Candida albicans (MY1055); experiment: broth microdilution assay (MIC/MFC), Candida albicans (MY1055)
Description: (§1) In the microbroth dilution assay, microorganisms were selected by streaking a yeast culture on Sabouraud dextrose agar (SDA) incubating for 24-48 hours at 35°-37° C., thereafter selected 3 to 5 characteristic colonies and transferring to a fresh plate and incubating under similar conditions. From the regrowth, 3 to 5 colonies were selected and suspended in 10 milliliters of YM broth (Difco) and incubated for 4 hours at 35°-37° C. shaking at 225 rpm. The 4 hour broth cultures were adjusted optically to 86% transmission resulting in a concentration of 1-5×10^6 cfu/ml which was further diluted 1:100 in YNBD (yeast nitrogen base with 1% dextrose) to obtain a concentration of 1-5×10^4 cfu/ml for use as inocula. […]
(§2) The plates containing the diluted compounds were then inoculated with 75 μl/well of the appropriate microorganism and incubated for 48 hours at 35°-37° C. with MIC (minimum inhibitory concentration) determinations carried out after 24 hours of incubation (except Cryptococcus strains which are read at 48 hours). […]
(§3) After recording MICs at 24 hours, the microtiter plates were shaken gently to resuspend the cells. […] For Cryptococcus neoformans, SDA plates were inoculated at 48 hours after recording MICs and incubated 48 hours before reading the MFC. […]

[2] = tested on: Candida glabrata (MY1381); experiment: broth microdilution assay (MIC/MFC), Candida glabrata (MY1381); details: Nakaseomyces glabratus
Description: as §1, §2, §3

[3] = tested on: Candida parapsilosis (MY1010); experiment: broth microdilution assay (MIC/MFC), Candida parapsilosis (MY1010); details: Lodderomyces parapsilosis
Description: as §1, §2, §3

[4] = tested on: Candida pseudotropicalis (MY2099); experiment: broth microdilution assay (MIC/MFC), Candida pseudotropicalis (MY2099); details: Kluyveromyces marxianus
Description: as §1, §2, §3

[5] = tested on: Candida tropicalis (MY1124); experiment: broth microdilution assay (MIC/MFC), Candida tropicalis (MY1124)
Description: as §1, §2, §3

[6] = tested on: Candida albicans (CLY539); experiment: broth microdilution assay (MIC/MFC), Candida albicans (CLY539)
Description: as §1, §2, §3

Candida albicans (CA2) = experiment: broth microdilution assay (MIC/MFC), Candida albicans (CA2)
Description: as §1, §2, §3

[7] = tested on: Candida tropicalis (MY1012); experiment: broth microdilution assay (MIC/MFC), Candida tropicalis (MY1012)
Description: as §1, §2, §3

[8] = tested on: Candida guillermondii (MY1019); experiment: broth microdilution assay (MIC/MFC), Candida guillermondii (MY1019)
Description: as §1, §2, §3

Candida krusei = experiment: broth microdilution assay (MIC/MFC), Candida krusei; details: Pichia kudriavzevii
Description: as §1, §2, §3

[9] = tested on: Cryptococcus neoformans (MY2061); experiment: broth microdilution assay (MIC/MFC), Cryptococcus neoformans (MY2061); details: 48 hours, 35°-37° C., read-out: Minimum Inhibitory Concentration (MIC)
Description: as §1, §2, §3

[10] = tested on: Cryptococcus neoformans (MY2062); experiment: broth microdilution assay (MIC/MFC), Cryptococcus neoformans (MY2062); details: 48 hours
Description: as §1, §2, §3

[11] = tested on: Saccharomyces cerevisiae (MY2140); experiment: broth microdilution assay (MIC/MFC), Saccharomyces cerevisiae (MY2140)
Description: as §1, §2, §3

[12] = tested on: Aspergillus fumigatus (MY4839); experiment: broth microdilution assay (MIC), Aspergillus fumigatus (MY4839); details: read-out: Minimum Inhibitory Concentration (MIC)
Description: (§4) The test compound was dissolved at […] in 10% DMSO and diluted 2× into the first well to achieve a concentration of 256 μg/ml at 5% DMSO in the first well. Compounds are subsequently serially diluted 2× and cell suspension is added to each well resulting in an additional 2× dilution of compound. 75 μl of said solution is delivered to each well in column 1 of a 96-well, U-bottomed microtiter plate. The compounds in column 1 were then serially diluted two-fold to yield concentrations from 64 μg/ml to 0.03 μg/ml.
(§5) The plates containing the diluted compounds were then inoculated with 75 μl/well of the appropriate microorganism and incubated for 48 hours at 35°-37° C. with MIC (minimum inhibitory concentration) determinations carried out after 24 hours of incubation (except Cryptococcus strains which are read at 48 hours). Growth and sterility controls for each organism and sterility checks for the compounds also were carried out.

[13] = tested on: Aspergillus fumigatus (MY5668); experiment: broth microdilution assay (MIC), Aspergillus fumigatus (MY5668); details: read-out: Minimum Inhibitory Concentration (MIC)
Description: as §4, §5

panel of fungi = experiment: broth microdilution assay (MIC and MFC) against a panel of fungi; details: control compound amphotericin B
Description: as §1, §2, §3

[14] = tested on: filamentous fungi (Aspergillus flavus, Fusarium oxysporum, Ustilago zeae and the like); experiment: agar plate inhibition zone test with filamentous fungi; details: methanol solutions on agar plates; 28° C. or 37° C., 24 hours
Description: The compound is also useful for inhibiting the growth of filamentous fungi. Such use may be illustrated in the following tests with Aspergillus flavus, Fusarium oxysporum, Ustilago zeae and the like. Inocula for filamentous fungi are prepared by scraping the surface of stock plates maintained on potato dextrose agar with a moistened sterile dacron swab. The spores and mycelia are then suspended in 10 milliliters of sterile potato dextrose broth and adjusted to 70 percent transmission at 660 nm. The samples to be tested for production of antifungal agent are applied directly to the agar plates as methanol solutions. When the sample to be tested is crude broth, it may be centrifuged prior to application. The assay plates are then incubated at either 28° C. or 37° C. for 24 hours. Following incubation, the inhibition zones are measured. Growths are also noted as to appearance.

[15] = 24 hours, 35°-37° C., read-out: Minimum Inhibitory Concentration (MIC)
[16] = no growth or ≤4 colonies on SDA, read-out: Minimum Fungicidal Concentration (MFC)

`C=CC(CCCCC)C1=C(C(=O)C2C3C(C)CC(C(=O)OC)C(O)C3C(O)C2(O)C(=O)/C=C/C)C(=O)NC1=O` (centres unmarked) [Compound I] was tested, and the MIC [1, 15] was under 0.03 µg/mL, the MFC [1, 16] was 0.06 µg/mL (≈ 0.11 µM) and the MIC [2, 15] was 16 µg/mL (≈ 29.3 µM). For the same molecule, the MFC [2, 16] was 32 µg/mL (≈ 58.6 µM), the MIC [3, 15] was under 0.03 µg/mL and the MFC [3, 16] was under 0.03 µg/mL. The MIC [4, 15] was 2 µg/mL (≈ 3.67 µM), the MFC [4, 16] was 4 µg/mL (≈ 7.33 µM) and the MIC [5, 15] was 4 µg/mL (≈ 7.33 µM). For the same molecule, the MFC [5, 16] was 8 µg/mL (≈ 14.7 µM), the MIC [6, 15] was 0.06 µg/mL (≈ 0.11 µM) and the MFC [6, 16] was 0.125 µg/mL (≈ 0.229 µM). For the same molecule, the MIC (Candida albicans (CA2); [15]) was 0.125 µg/mL (≈ 0.229 µM), the MFC (Candida albicans (CA2); [16]) was 0.25 µg/mL (≈ 0.458 µM) and the MIC [7, 15] was 1 µg/mL (≈ 1.83 µM). For the same molecule, the MFC [7, 16] was 2 µg/mL (≈ 3.67 µM), the MIC [8, 15] was 2 µg/mL (≈ 3.67 µM) and the MFC [8, 16] was 16 µg/mL (≈ 29.3 µM). For the same molecule, the MIC (Candida krusei; [15]) was 0.06 µg/mL (≈ 0.11 µM), the MFC (Candida krusei; [16]) was 0.5 µg/mL (≈ 0.916 µM) and the MIC [9] was under 0.03 µg/mL. It also gave an MIC ([10]; 35°-37° C., read-out: Minimum Inhibitory Concentration (MIC)) of under 0.03 µg/mL, an MFC [10, 16] of under 0.03 µg/mL and an MIC ([11]; Saccharomyces cerevisiae (MY2140), 24 hours, 35°-37° C., read-out: Minimum Inhibitory Concentration (MIC)) of 4 µg/mL (≈ 7.33 µM). The MFC ([11]; Saccharomyces cerevisiae, read-out: Minimum Fungicidal Concentration (MFC)) was 0.5 µg/mL (≈ 0.916 µM), the MIC [12] was under 0.03 µg/mL and the MIC [13] was 1 µg/mL (≈ 1.83 µM). The “effectiveness against a panel of fungi (MIC and MFC) relative to amphotericin B” value (panel of fungi) was “effective at concentrations comparable to an established antifungal agent, amphotericin B” and the “inhibition of growth of filamentous fungi (inhibition zones)” value [14] was “effectively inhibit growth of the fungal organisms”.
